From patent US9371342B2, “Isoprene oligomer, polyisoprene, processes for producing these materials, rubber composition, and pneumatic tire” (priority 2010, dated 2016) come the findings set out here.

Common to all, as to type: biochemical
Assay [1] concerns the target T1, Micrococcus luteus B-P 26-derived undecaprenyl diphosphate synthase (wild-type enzyme) (Micrococcus luteus, UniProt O82827).
T1 construct: made in house; host or cells: E. coli; plasmid pET22b/MLU-UPS
The assay can be described thus: Relative activity of wild-type undecaprenyl diphosphate synthase on initiating substrates. The following applies: activity of the enzyme on farnesyl diphosphate as 100; 12.5 μM initiating substrate, pH 7.5, 1 hour, 37° C. The method, then: Reaction was performed under conditions shown below using each of the initiating substrates prepared in Production Examples 1 to 11 or farnesyl diphosphate. The activity of each variant enzyme on each initiating substrate was indicated by index with the activity of the wild-type enzyme (Micrococcus luteus B-P 26-derived undecaprenyl diphosphate synthase) as 100.
After the reaction, liquid scintillation counting and TLC quantification were performed to measure the activity of each enzyme.
Next, reaction was performed under conditions shown below using Micrococcus luteus B-P 26-derived undecaprenyl diphosphate synthase as an enzyme and each of the initiating substrates 1 to 4, the compound represented by the formula (B), the compound represented by the formula (C), the compound represented by the formula (G), the compound represented by the formula (K), and farnesyl diphosphate (FPP). The results were indicated in Table 10 by the relative activity of the enzyme on the initiating substrates 1 to 4, the compound represented by the formula (B), the compound represented by the formula (C), the compound represented by the formula (G), and the compound represented by the formula (K) with the activity of the enzyme on farnesyl diphosphate as 100.
(§1) After the reaction, liquid scintillation counting and TLC quantification were performed to measure the activity of the enzyme on each initiating substrate.

In assay [2] the target is T2, Sulfolobus acidocaldarius-derived geranylgeranyl diphosphate synthase (Sulfolobus acidocaldarius, UniProt P39464).
T2 construct: made in house; host or cells: E. coli BL21 (DE3)
Briefly: Relative activity of geranylgeranyl diphosphate synthase on initiating substrates. The following applies: 12.5 μM initiating substrate, pH 5.8, 1 hour, 55° C. How it is done:
Likewise, reaction was performed under conditions shown below using Sulfolobus acidocaldarius-derived geranylgeranyl diphosphate synthase and each of the initiating substrates 1 to 4, the compound represented by the formula (B), the compound represented by the formula (C), the compound represented by the formula (G), the compound represented by the formula (K), the compound represented by the formula (F), the compound represented by the formula (I), the compound represented by the formula (Q), farnesyl diphosphate (FPP), and geranyl diphosphate (GPP). The results were indicated in Tables 12 and 13 by the relative activity of the enzyme on the initiating substrates 1 to 4, the compound represented by the formula (B), the compound represented by the formula (C), the compound represented by the formula (G), the compound represented by the formula (K), the compound represented by the formula (F), the compound represented by the formula (I), and the compound represented by the formula (QO) with the activity of the enzyme on farnesyl diphosphate or geranyl diphosphate as 100.
as §1

Assay [3] addresses T3, Bacillus stearothermophilus-derived farnesyl diphosphate synthase (Geobacillus stearothermophilus, UniProt Q08291).
T3 construct: made in house; host or cells: E. coli BL21 (DE3)
The assay can be described thus: Relative activity of farnesyl diphosphate synthase on initiating substrates. The following applies: activity of the enzyme on geranyl diphosphate as 100; 12.5 μM initiating substrate, pH 8.5, 1 hour, 55° C. The method, then:
Reaction was performed under conditions shown below using the obtained Bacillus stearothermophilus-derived farnesyl diphosphate synthase and each of the initiating substrates 1 to 4, the compound represented by the formula (F), the compound represented by the formula (I), the compound represented by the formula (QO), and geranyl diphosphate (GPP) whose structure is shown below. The results were indicated in Table 11 by the relative activity of the enzyme on the initiating substrates 1 to 4, the compound represented by the formula (F), the compound represented by the formula (I), and the compound represented by the formula (Q) with the activity of the enzyme on geranyl diphosphate as 100.
as §1

Where [4] appears, read: activity of the enzyme on farnesyl diphosphate as 100.
The mark [5] stands for this setting: activity of the enzyme on geranyl diphosphate as 100.

T2 sequence (P39464 whole entry): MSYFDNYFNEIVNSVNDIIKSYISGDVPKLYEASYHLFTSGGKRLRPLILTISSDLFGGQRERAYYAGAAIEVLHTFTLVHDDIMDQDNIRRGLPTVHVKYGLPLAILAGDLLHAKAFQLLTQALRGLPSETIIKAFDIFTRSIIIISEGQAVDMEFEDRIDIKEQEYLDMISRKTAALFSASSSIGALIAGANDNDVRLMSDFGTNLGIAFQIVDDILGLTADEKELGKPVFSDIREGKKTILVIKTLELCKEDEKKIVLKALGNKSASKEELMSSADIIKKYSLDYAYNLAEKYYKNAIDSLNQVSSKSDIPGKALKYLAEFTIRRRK
T1 sequence (O82827 whole entry): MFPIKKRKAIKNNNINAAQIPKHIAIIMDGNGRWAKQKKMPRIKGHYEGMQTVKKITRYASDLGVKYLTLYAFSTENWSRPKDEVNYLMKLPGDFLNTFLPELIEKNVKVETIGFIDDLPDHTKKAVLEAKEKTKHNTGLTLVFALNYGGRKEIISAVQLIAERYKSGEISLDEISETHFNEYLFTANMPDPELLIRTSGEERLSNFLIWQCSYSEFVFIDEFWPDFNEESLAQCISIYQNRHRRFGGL
T3 sequence (Q08291 whole entry): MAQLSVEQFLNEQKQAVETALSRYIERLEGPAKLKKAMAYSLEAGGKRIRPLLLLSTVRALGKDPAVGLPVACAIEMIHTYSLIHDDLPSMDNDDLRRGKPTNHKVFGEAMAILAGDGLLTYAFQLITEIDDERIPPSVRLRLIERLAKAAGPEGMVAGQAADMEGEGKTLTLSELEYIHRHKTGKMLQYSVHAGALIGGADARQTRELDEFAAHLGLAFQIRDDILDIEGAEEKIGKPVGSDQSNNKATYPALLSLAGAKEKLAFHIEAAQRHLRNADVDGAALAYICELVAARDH

`CC(C)=CCC/C(C)=C/CC/C=C/COP(=O)(O)OP(=O)(O)O` [Initiating substrate 3, 7,11-dimethyl-dodeca-2E,6E,10E-trienyl diphosphate]: the “Relative activity (%)” value in assay [1] stood at 1.2%; in assay [2] (setting [4]), 3.9%; in assay [2] (setting [5]), 0.6%; in assay [3], 2.1%.

`CC(C)=CCC/C(C)=C/CC/C(C)=C/CC/C=C/COP(=O)(O)OP(=O)(O)O` [Initiating substrate 4, 7,11,15-trimethyl-hexadeca-2E,6E,10E,14E-tetraenyl diphosphate]: the “Relative activity (%)” value in assay [1] stood at 5.9%; in assay [2] (setting [4]) it was 1.4%; in assay [2] (setting [5]), 0.8%; in assay [3] it was 0.7%.
